From the NIST ThermoML archive (doi:10.1021/acs.jced.8b00537)

Test: xn = mol fraction of the nth substance listed
Settings: 100 kPa, Liquid; for viscosity: Capillary tube (Ostwald / Ubbelohde) method; for speed of sound: Frequency=3 MHz, Single path-length method; for mass density: Vibrating tube method

C=CCn1cc[n+](C)c1.O=S(=O)([N-]S(=O)(=O)C(F)(F)F)C(F)(F)F + CCCO
Settings | mass density [kg/m3] | speed of sound [m/s] | viscosity [mPa·s]
293.15 K, x1 = 0.04962 | 915 | 1204.7 | 2.854
293.15 K, x1 = 0.1003 | 1005 | 1193.5 | 3.841
293.15 K, x1 = 0.1995 | 1136 | 1193.5 | 5.727
293.15 K, x1 = 0.2987 | 1228 | 1202.2 | 7.59
293.15 K, x1 = 0.399 | 1297 | 1210.6 | 9.85
293.15 K, x1 = 0.5003 | 1352 | 1221 | 12.17
293.15 K, x1 = 0.6007 | 1394 | 1227.5 | 15.66
293.15 K, x1 = 0.6971 | 1428 | 1234.7 | 19.1
293.15 K, x1 = 0.8024 | 1459 | 1241.9 | 24.1
293.15 K, x1 = 0.8974 | 1483 | 1246.5 | 30.62
293.15 K, x1 = 1 | 1505 | 1251.6 | 41.83
298.15 K, x1 = 0.04962 | – | 1189.4 | –
298.15 K, x1 = 0.1003 | – | 1179 | –
298.15 K, x1 = 0.1995 | – | 1180.2 | –
298.15 K, x1 = 0.2987 | – | 1189.5 | –
298.15 K, x1 = 0.399 | – | 1198.3 | –
298.15 K, x1 = 0.5003 | – | 1208.9 | –
298.15 K, x1 = 0.6007 | – | 1215.6 | –
298.15 K, x1 = 0.6971 | – | 1222.9 | –
298.15 K, x1 = 0.8024 | – | 1230.3 | –
298.15 K, x1 = 0.8974 | – | 1235 | –
298.15 K, x1 = 1 | – | 1240.2 | –
303.15 K, x1 = 0.04962 | 906 | 1174 | 2.215
303.15 K, x1 = 0.1003 | 996 | 1164.6 | 2.899
303.15 K, x1 = 0.1995 | 1126 | 1167 | 4.266
303.15 K, x1 = 0.2987 | 1219 | 1176.9 | 5.633
303.15 K, x1 = 0.399 | 1287 | 1186 | 7.268
303.15 K, x1 = 0.5003 | 1341 | 1197 | 8.94
303.15 K, x1 = 0.6007 | 1384 | 1203.9 | 11.42
303.15 K, x1 = 0.6971 | 1418 | 1211.3 | 13.82
303.15 K, x1 = 0.8024 | 1449 | 1218.8 | 17.21
303.15 K, x1 = 0.8974 | 1472 | 1223.6 | 21.53
303.15 K, x1 = 1 | 1495 | 1228.9 | 28.51
308.15 K, x1 = 0.04962 | 902 | 1158.7 | 1.969
308.15 K, x1 = 0.1003 | 991 | 1150.4 | 2.555
308.15 K, x1 = 0.1995 | 1121 | 1153.9 | 3.74
308.15 K, x1 = 0.2987 | 1214 | 1164.4 | 4.928
308.15 K, x1 = 0.399 | 1282 | 1174 | 6.339
308.15 K, x1 = 0.5003 | 1336 | 1185.2 | 7.782
308.15 K, x1 = 0.6007 | 1379 | 1192.3 | 9.908
308.15 K, x1 = 0.6971 | 1413 | 1199.9 | 11.95
308.15 K, x1 = 0.8024 | 1444 | 1207.5 | 14.8
308.15 K, x1 = 0.8974 | 1467 | 1212.4 | 18.38
308.15 K, x1 = 1 | 1489 | 1217.8 | 23.96
313.15 K, x1 = 0.04962 | 898 | 1143.4 | 1.759
313.15 K, x1 = 0.1003 | 987 | 1136.2 | 2.266
313.15 K, x1 = 0.1995 | 1117 | 1140.9 | 3.302
313.15 K, x1 = 0.2987 | 1209 | 1152 | 4.344
313.15 K, x1 = 0.399 | 1277 | 1162 | 5.574
313.15 K, x1 = 0.5003 | 1331 | 1173.5 | 6.833
313.15 K, x1 = 0.6007 | 1374 | 1180.8 | 8.677
313.15 K, x1 = 0.6971 | 1408 | 1188.6 | 10.42
313.15 K, x1 = 0.8024 | 1439 | 1196.3 | 12.85
313.15 K, x1 = 0.8974 | 1462 | 1201.3 | 15.85
313.15 K, x1 = 1 | 1484 | 1206.8 | 20.41
318.15 K, x1 = 0.04962 | 893 | 1128.2 | 1.577
318.15 K, x1 = 0.1003 | 982 | 1122.1 | 2.021
318.15 K, x1 = 0.1995 | 1112 | 1128 | 2.938
318.15 K, x1 = 0.2987 | 1204 | 1139.7 | 3.858
318.15 K, x1 = 0.399 | 1272 | 1150.1 | 4.937
318.15 K, x1 = 0.5003 | – | 1161.8 | 6.043
318.15 K, x1 = 0.6007 | – | 1169.4 | 7.657
318.15 K, x1 = 0.6971 | – | 1177.4 | 9.174
318.15 K, x1 = 0.8024 | – | 1185.2 | 11.26
318.15 K, x1 = 0.8974 | – | 1190.4 | 13.81
318.15 K, x1 = 1 | – | 1196 | 17.51
